Data on 31 compounds can be found in the Deep4Chem optical property database.

This data set can be described thus: solvent given as SMILES.

Several values for one entry are separate records, joined by “and”; a condition that tells them apart may be missing. Equal values may be shown once.

Turning to `O=C(O)COc1ccc2[nH]c3c(c2c1)CCCC3=O`, the emission maximum is, setting by setting: (in C1CCOC1) 419.81 nm; (in C1COCCO1) 404.04 nm; (in CC#N) 419.23 nm; (in CCCCCCCCCCCCO) 449.42 nm; (in CCCCCCCCCCO) 449.81 nm; (in CCCCCCCCO) 456.15 nm. For the same compound, the emission maximum was 469.04 nm (in CCCCCCO); 464.23 nm (in CCCCO); 472.12 nm (in CCO); 410 nm (in CCOC(C)=O); 430 nm (in CN(C)C=O); 491.73 nm (in CO). This compound also yielded an emission maximum (in CS(C)=O) of 426.92 nm, an emission maximum (in Cc1ccccc1) of 400.96 nm, an emission maximum (in O) of 507.69 nm and an emission maximum (in c1ccccc1) of 399.81 nm.

Regarding `CCC1=C(C)C(=O)n2c1cc1c(C)c(CCC(=O)OC)c(C)n1c2=O`, the emission maximum came to 530 nm (in CO), 505 nm (in CS(C)=O), 495 nm (in ClC(Cl)Cl) and 470 nm (in c1ccccc1).

`O=S(=O)(O)c1cccc2cccc(Nc3ccccc3)c12`: the emission maximum is recorded as 477 nm (in CCCCO); 479 nm (in CCCO); 485 nm (in CCO); 490 nm (in CO); 501 nm (in OCC(O)CO); 495 nm (in OCCO).

`c1cc2ccc3[nH]c4ccc5cccc6c(c1)c2c3c4c56` registered an emission maximum (in ClC(Cl)Cl) of 436 nm.

`N#Cc1ccc(-n2c(-c3ccc(-c4ccc(N(c5ccccc5)c5ccccc5)cc4)s3)nc3c4ccccc4c4ccccc4c32)c2ccccc12` returned an emission maximum (in ClCCl) of 408 nm.

As to `Cc1cc(C)c(B(c2ccc(-c3ccc(-c4nc5c6ccccc6c6ccccc6c5[nH]4)cc3)cc2)c2c(C)cc(C)cc2C)c(C)c1`, the emission maximum came to 474 nm (in C1CCOC1); 493 nm (in CC(C)=O); 520 nm (in CS(C)=O); 435 nm (in Cc1ccccc1); 469 nm (in ClCCl).

In the case of `c1ccc(Nc2nc(Nc3ccccc3)nc(Nc3cc4ccc5cccc6ccc(c3)c4c56)n2)cc1`, the emission maximum by setting is: (in CC#N) 398 nm; (in CCCCOCCCC) 397 nm; (in CO) 399 nm.

Consider `N#Cc1cccc(C#N)c1-n1c2ccccc2c2cc(-c3ccc4c(c3)c3ccccc3n4-c3c(C#N)cccc3C#N)ccc21`, for which the emission maximum runs as follows: (in Cc1ccccc1) 488 nm; (in O=P(c1ccccc1)(c1ccccc1)c1ccccc1Oc1ccccc1P(=O)(c1ccccc1)c1ccccc1) 488 nm.

For the compound `c1ccc(CSc2c3ccc(=[N+]4CCCCC4)cc-3oc3cc(N4CCCCC4)ccc23)cc1`, the emission maximum (in ClCCl) is listed as 619 nm.

Take `C(#Cc1ccccc1)C(C#Cc1ccccc1)=Cc1ccccc1`: the emission maximum (in ClC(Cl)Cl) is listed as 392 nm.

For the compound `COc1ccc(/C=C/C(=O)c2ccccc2O)cc1OC`, the emission maximum runs as follows: (in C1COCCO1) 425 nm; (in CC#N) 436 nm; (in CCCO) 495 nm; (in CCO) 500 nm; (in CN(C)C=O) 473 nm; (in CO) 510 nm. Besides, the emission maximum is, setting by setting: (in CS(C)=O) 480 nm; (in ClC(Cl)Cl) 462 nm; (in ClCCl) 460 nm.

As for `N#Cc1c(-n2nnc3ccccc32)n([C@H]2C[C@H](O)[C@@H](CO)O2)c2ncnc(N)c12`, for the setting “in CO”, the emission maximum is 416 nm.

Regarding `CCn1c2ccccc2c2cc(C#Cc3cc(C#Cc4ccc5c(c4)c4ccccc4n5CC)nc(SC)n3)ccc21`, the emission maximum by setting is: (in C1CCOC1) 449 nm; (in CCOC(C)=O) 446 nm; (in CN(C)C=O) 502 nm; (in Cc1ccccc1) 416 nm; (in ClCCl) 471 nm.

For `CCCCCCN1C(=O)c2cccc3c(-c4ccc(-c5ccc6c7c(cccc57)C(=O)N(CCCCCC)C6=O)s4)ccc(c23)C1=O`, the emission maximum (in ClC(Cl)Cl) turned out to be 495 nm.

Compound `[NH-]c1cc(N)cc(-c2nc3ccccc3s2)c1` displayed an emission maximum (in O) of 484 nm.

Turning to `Cc1cc(O)c(C(=O)/C=C/c2ccccc2[N+](=O)[O-])c(=O)o1`, the emission maximum runs as follows: (in CC#N) 480 nm; (in ClCCl) 471 nm.

Compound `COc1cc2sc3nc(-c4ccccc4OC)sc3c2cc1OC` registered an emission maximum (in CS(C)=O) of 438 nm.

With `CCCC1=C(CCC)c2cccc3c2c(cc2nc4ccccc4nc23)O1`, the emission maximum (in ClCCl) was found to be 563 nm.

On to `CC1(C)C(/C=C/C=C/C=C/C=C2/N(CS(=O)(=O)[O-])c3ccc(S(=O)(=O)[O-])cc3C2(C)C)=[N+](CS(=O)(=O)[O-])c2ccc(S(=O)(=O)[O-])cc21`, for which the emission maximum by setting is: (in CO) 776 nm; (in O) 771 nm.

For the setting “in ClCCl”, `COC(=O)C1=C(C(=O)OC)C2(c3ccccc3-c3ccccc32)[C@@H](c2ccc(C)cc2)C=C2c3cc(OC)c(OC)cc3CCN21` returned an emission maximum of 425 nm.

Consider `Cn1c2ccccc2c2cc(/C=C/C3=[O+][B-](F)(F)OC(/C=C/c4ccc5c(c4)c4ccccc4n5C)=C3c3ccccc3)ccc21`, for which the emission maximum (in ClCCl) is given as 636 nm.

Regarding `N#Cc1ccc(C#Cc2ncc(-c3ccccc3)o2)cc1`, the emission maximum (in ClCCl) is 410 nm.

In the case of `F[B-]1(F)n2c(cc3sc4ccccc4c32)C(c2ccc(I)cc2)=C2C=c3sc4ccccc4c3=[N+]21`, the emission maximum (in ClC(Cl)Cl) is 673 nm.

With `CC1=CC(C)=[N+]2C1=C(c1ccccc1)c1c(C)cc(C)n1[B-]2(F)F`, the emission maximum by setting is: (in C1CCOC1) 512 nm and 510 nm; (in CC#N) 508 nm; (in CC(=O)C(C)(C)C) 511 nm; (in CC(C)=O) 509 nm; (in CCCCCC) 511 nm; (in CCOC(C)=O) 510 nm. For the same compound, the emission maximum runs as follows: (in CO) 509 nm and 510 nm; (in Cc1ccccc1) 516 nm; (in ClCCl) 513 nm.

In the case of `COc1ccc(-c2nc(N)nc(C#N)c2C#N)cc1OC`, the emission maximum is reported as 428 nm (in C1COCCO1); 456 nm (in CC#N); 430 nm (in CC(C)=O); 436 nm (in CCO); 442 nm (in CCOC(C)=O); 442 nm (in CO).

As to `Clc1cnc2nn3ccccc3c2n1`, the emission maximum (in C1CCOC1) worked out at 448 nm.

On to `CCCCCCN1C(=O)c2cccc3cc(/N=C\c4c[nH]c5c4ccc4ccccc45)cc(c23)C1=O`, for which the emission maximum (in ClC(Cl)Cl) was found to be 501 nm.

Regarding `Fc1cc(-c2nc(-c3ccccc3)nc(-c3ccccc3)n2)ccc1-n1c2ccccc2c2c3c(ccc21)C1(c2ccccc2-c2ccccc21)c1ccccc1-3`, the emission maximum is, setting by setting: (in C1CCOC1) 487.96 nm; (in C1COCCO1) 461.11 nm; (in CN(C)C=O) 533.56 nm; (in Cc1ccccc1) 448 nm; (in ClC(Cl)Cl) 500.23 nm.

As to `CC1=NN(c2cccc3ccccc23)[B-](F)(F)[n+]2ccccc21`, the emission maximum (in ClCCl) is reported as 538 nm.

With `CC1=C(c2cccs2)C(C)=[N+]2C1=C(c1ccc(O)cc1)c1c(C)c(-c3cccs3)c(C)n1[B-]2(F)F`, the emission maximum by setting is: (in CO) 602 nm; (in Cc1ccccc1) 604 nm; (in ClCCl) 605 nm.

Take `C/C(=N\Nc1ccc(C#N)cc1)c1ccccn1`: the emission maximum was 463 nm (in CC#N); 452 nm (in CCCCCC); 482 nm (in CO); 475 nm (in CS(C)=O); 460 nm (in ClC(Cl)Cl).
